From patent publication US8802597B2, “Herbicidal pyrimidines” (E I du Pont de Nemours and Company, priority 2003, dated 2014)
Like-named read-outs stand apart in the source and are kept apart here.

Legend:
Experiment in all cases: Test C pre/postemergence
Type in all cases: in vivo
[1] = system: Surinam grass (Brachiaria decumbens); settings: Urochloa decumbens; for pest or weed control at 125 g/ha: 125 g ai/ha; for pest or weed control at 500 g/ha: 500 g ai/ha; for pest or weed control at 250 g/ha: 250 g ai/ha
Method in brief: (§1)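 Seeds sown and sprayed preemergence with test compound in non-phytotoxic solvent containing surfactant; postemergence sprays, same formulation, went onto plants 2 to 18 cm tall (1- to 4-leaf stage). Plants held in greenhouse 12 to 14 days, then visually rated against untreated controls on a 0–100 scale (0 no effect, 100 complete control).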

[2] = system: bermudagrass (Cynodon dactylon); settings: Cynodon dactylon; for pest or weed control at 62 g/ha: 62 g ai/ha; for pest or weed control at 125 g/ha: 125 g ai/ha; for pest or weed control at 250 g/ha: 250 g ai/ha; for pest or weed control at 500 g/ha: 500 g ai/ha
Method in brief: as §1

[3] = system: common (oilseed) sunflower (Helianthus annuus); settings: Helianthus annuus, pre-emergence, Preemergence, read-out: Plant response rating, Sunflower
Method in brief: as §1

[4] = system: crabgrass (Digitaria sanguinalis); settings: Digitaria sanguinalis; for pest or weed control at 62 g/ha: 62 g ai/ha; for pest or weed control at 125 g/ha: 125 g ai/ha; for pest or weed control at 250 g/ha: 250 g ai/ha; for pest or weed control at 500 g/ha: 500 g ai/ha
Method in brief: as §1

[5] = system: giant foxtail (Setaria faberii); settings: Setaria faberi; for pest or weed control at 125 g/ha: 125 g ai/ha; for pest or weed control at 500 g/ha: 500 g ai/ha; for pest or weed control at 62 g/ha: 62 g ai/ha; for pest or weed control at 250 g/ha: 250 g ai/ha
Method in brief: as §1

[6] = system: goosegrass (Eleusine indica); settings: Eleusine indica; for pest or weed control at 62 g/ha: 62 g ai/ha; for pest or weed control at 125 g/ha: 125 g ai/ha; for pest or weed control at 250 g/ha: 250 g ai/ha; for pest or weed control at 500 g/ha: 500 g ai/ha
Method in brief: as §1

[7] = post-emergence, Postemergence, scale 0 to 100, read-out: Plant response rating, Surinam Grass
[8] = pre-emergence, Preemergence, scale 0 to 100, read-out: Plant response rating, Surinam Grass
[9] = post-emergence, Postemergence, scale 0 to 100 (0 no effect, 100 complete control), read-out: Bermudagrass plant response rating
[10] = post-emergence, Postemergence, scale 0 to 100, read-out: Plant response rating, Bermudagrass
[11] = pre-emergence, Preemergence, scale 0 to 100, read-out: Plant response rating, Bermudagrass
[12] = post-emergence, Postemergence, scale 0 to 100 (0 no effect, 100 complete control), read-out: Crabgrass plant response rating
[13] = post-emergence, Postemergence, scale 0 to 100, read-out: Plant response rating, Crabgrass
[14] = pre-emergence, Preemergence, scale 0 to 100, read-out: Plant response rating, Crabgrass
[15] = post-emergence, Postemergence, scale 0 to 100 (0 no effect, 100 complete control), read-out: Foxtail, Giant plant response rating
[16] = post-emergence, Postemergence, scale 0 to 100, read-out: Plant response rating, Foxtail, Giant
[17] = pre-emergence, Preemergence, scale 0 to 100, read-out: Plant response rating, Foxtail, Giant
[18] = post-emergence, Postemergence, scale 0 to 100 (0 no effect, 100 complete control), read-out: Goosegrass plant response rating
[19] = post-emergence, Postemergence, scale 0 to 100, read-out: Plant response rating, Goosegrass
[20] = pre-emergence, Preemergence, scale 0 to 100, read-out: Plant response rating, Goosegrass

Question: With Nc1nc(C2CC2)nc(C(=O)OCc2ccccc2)c1Br [Compound 22, phenylmethyl 6-amino-5-bromo-2-cyclopropyl-4-pyrimidinecarboxylate] as the compound, how does the pest or weed control at 125 g/ha ([1]; post-emergence, Postemergence, scale 0 to 100 (0 no effect, 100 complete control), read-out: Surinam Grass plant response rating) read?
Answer: Its pest or weed control at 125 g/ha is 60%.

Question: What about the pest or weed control at 500 g/ha [1, 7] of the same compound?
Answer: The pest or weed control at 500 g/ha was 85%.

Question: And the pest or weed control at 62 g/ha ([1]; post-emergence, Postemergence, 62 g ai/ha, scale 0 to 100 (0 no effect, 100 complete control), read-out: Surinam Grass plant response rating)?
Answer: Its pest or weed control at 62 g/ha is 55%.

Question: What about the pest or weed control at 250 g/ha [1, 7] of the same compound?
Answer: The pest or weed control at 250 g/ha was 85%.

Question: What about the pest or weed control at 125 g/ha [1, 8] of the same compound?
Answer: The pest or weed control at 125 g/ha was 90%.

Question: And the pest or weed control at 250 g/ha [1, 8]?
Answer: Its pest or weed control at 250 g/ha is 100%.

Question: And the pest or weed control at 500 g/ha [1, 8]?
Answer: Its pest or weed control at 500 g/ha is 100%.

Question: And the pest or weed control at 62 g/ha [2, 9]?
Answer: The pest or weed control at 62 g/ha was 50%.

Question: And the pest or weed control at 125 g/ha [2, 9]?
Answer: The pest or weed control at 125 g/ha was 60%.

Question: And the pest or weed control at 250 g/ha [2, 10]?
Answer: The pest or weed control at 250 g/ha was 60%.

Question: What about the pest or weed control at 500 g/ha [2, 10] of the same compound?
Answer: Its pest or weed control at 500 g/ha is 60%.

Question: What about the pest or weed control at 62 g/ha ([2]; pre-emergence, Preemergence, scale 0 to 100, 0 no effect, 100 complete control, read-out: Plant response rating, Bermudagrass) of the same compound?
Answer: Its pest or weed control at 62 g/ha is 0%.

Question: And the pest or weed control at 125 g/ha [2, 11]?
Answer: The pest or weed control at 125 g/ha was 50%.

Question: What about the pest or weed control at 250 g/ha [2, 11] of the same compound?
Answer: Its pest or weed control at 250 g/ha is 50%.

Question: And the pest or weed control at 500 g/ha [2, 11]?
Answer: Its pest or weed control at 500 g/ha is 90%.

Question: And the pest or weed control at 62 g/ha ([3]; 62 g ai/ha, scale 0 to 100, 0 no effect, 100 complete control)?
Answer: Its pest or weed control at 62 g/ha is 90%.

Question: And the pest or weed control at 125 g/ha ([3]; 125 g ai/ha, scale 0 to 100)?
Answer: The pest or weed control at 125 g/ha was 95%.

Question: And the pest or weed control at 250 g/ha ([3]; 250 g ai/ha, scale 0 to 100)?
Answer: The pest or weed control at 250 g/ha was 100%.

Question: What about the pest or weed control at 500 g/ha ([3]; 500 g ai/ha, scale 0 to 100) of the same compound?
Answer: The pest or weed control at 500 g/ha was 100%.

Question: What about the pest or weed control at 62 g/ha [4, 12] of the same compound?
Answer: Its pest or weed control at 62 g/ha is 50%.

Question: And the pest or weed control at 125 g/ha [4, 12]?
Answer: Its pest or weed control at 125 g/ha is 55%.

Question: And the pest or weed control at 250 g/ha [4, 13]?
Answer: Its pest or weed control at 250 g/ha is 85%.

Question: What about the pest or weed control at 500 g/ha [4, 13] of the same compound?
Answer: The pest or weed control at 500 g/ha was 85%.

Question: What about the pest or weed control at 62 g/ha ([4]; pre-emergence, Preemergence, scale 0 to 100, 0 no effect, 100 complete control, read-out: Plant response rating, Crabgrass) of the same compound?
Answer: The pest or weed control at 62 g/ha was 90%.

Question: What about the pest or weed control at 125 g/ha [4, 14] of the same compound?
Answer: Its pest or weed control at 125 g/ha is 95%.

Question: And the pest or weed control at 250 g/ha [4, 14]?
Answer: The pest or weed control at 250 g/ha was 95%.

Question: And the pest or weed control at 500 g/ha [4, 14]?
Answer: Its pest or weed control at 500 g/ha is 100%.

Question: And the pest or weed control at 125 g/ha [5, 15]?
Answer: Its pest or weed control at 125 g/ha is 45%.

Question: And the pest or weed control at 500 g/ha [5, 16]?
Answer: The pest or weed control at 500 g/ha was 60%.

Question: And the pest or weed control at 62 g/ha [5, 15]?
Answer: The pest or weed control at 62 g/ha was 40%.

Question: And the pest or weed control at 250 g/ha [5, 16]?
Answer: The pest or weed control at 250 g/ha was 50%.

Question: And the pest or weed control at 62 g/ha ([5]; pre-emergence, Preemergence, scale 0 to 100, 0 no effect, 100 complete control, read-out: Plant response rating, Foxtail, Giant)?
Answer: Its pest or weed control at 62 g/ha is 10%.

Question: What about the pest or weed control at 125 g/ha [5, 17] of the same compound?
Answer: Its pest or weed control at 125 g/ha is 15%.

Question: What about the pest or weed control at 250 g/ha [5, 17] of the same compound?
Answer: The pest or weed control at 250 g/ha was 20%.

Question: And the pest or weed control at 500 g/ha [5, 17]?
Answer: The pest or weed control at 500 g/ha was 60%.

Question: And the pest or weed control at 62 g/ha [6, 18]?
Answer: The pest or weed control at 62 g/ha was 10%.

Question: And the pest or weed control at 125 g/ha [6, 18]?
Answer: Its pest or weed control at 125 g/ha is 10%.

Question: What about the pest or weed control at 250 g/ha [6, 19] of the same compound?
Answer: Its pest or weed control at 250 g/ha is 20%.

Question: And the pest or weed control at 500 g/ha [6, 19]?
Answer: Its pest or weed control at 500 g/ha is 25%.

Question: What about the pest or weed control at 62 g/ha ([6]; pre-emergence, Preemergence, scale 0 to 100, 0 no effect, 100 complete control, read-out: Plant response rating, Goosegrass) of the same compound?
Answer: Its pest or weed control at 62 g/ha is 0%.

Question: And the pest or weed control at 125 g/ha [6, 20]?
Answer: The pest or weed control at 125 g/ha was 0%.

Question: What about the pest or weed control at 250 g/ha [6, 20] of the same compound?
Answer: Its pest or weed control at 250 g/ha is 80%.

Question: And the pest or weed control at 500 g/ha [6, 20]?
Answer: Its pest or weed control at 500 g/ha is 100%.
